Laboratory results: patent US20250171436A1, “Tricyclic Fused Heterocyclic PDE3/4 Dual Inhibitor and Use Thereof” (XIZANG HAISCO PHARMACEUTICAL CO., LTD., priority 2022, published 2025)

Columns and labels:
PDE4 = conditions: biological activity data, background; cited from earlier work
[1] = reported in WO 2000058308 A1; cited from earlier work
[2] = reported in WO 2000058308 A1; cited from earlier work; remark: listed apart in the source
[3] = molecular target: T1, PDE4B2 recombinant enzyme (Homo sapiens, UniProt Q07343); assay: In vitro assay of inhibitory activity against PDE 4B2 enzyme (FP, FAM-cAMP); type: biochemical; conditions: in vitro screening assay
T1 construct: purchased BPS 60343
T1 sequence (Q07343 1-564 isoform Q07343-2): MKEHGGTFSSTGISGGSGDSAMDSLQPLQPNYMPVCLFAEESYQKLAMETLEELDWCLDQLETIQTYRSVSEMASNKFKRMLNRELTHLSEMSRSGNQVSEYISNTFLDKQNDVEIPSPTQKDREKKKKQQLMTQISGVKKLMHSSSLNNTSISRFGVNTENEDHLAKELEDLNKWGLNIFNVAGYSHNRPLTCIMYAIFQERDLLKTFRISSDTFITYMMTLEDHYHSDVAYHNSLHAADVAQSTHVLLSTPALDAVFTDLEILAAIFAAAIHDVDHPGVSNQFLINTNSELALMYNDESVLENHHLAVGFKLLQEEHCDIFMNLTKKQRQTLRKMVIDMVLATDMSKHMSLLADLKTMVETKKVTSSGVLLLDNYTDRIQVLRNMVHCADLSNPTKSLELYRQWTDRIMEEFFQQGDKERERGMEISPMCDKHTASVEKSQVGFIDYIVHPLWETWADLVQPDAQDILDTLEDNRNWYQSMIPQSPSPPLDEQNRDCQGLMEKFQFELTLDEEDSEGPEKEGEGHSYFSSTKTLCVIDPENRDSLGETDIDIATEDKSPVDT
Method: (§1) • 1. In vitro assay of the inhibitory activity of compounds against PDE 3A and PDE 4B2 enzymes
(§2) • Envision 2104 Multilabel Reader (PerkinElmer) • Black 96-well Plate (Cat #6005540, PerkinElmer) • PDE3A Assay Kit (BPS, Cat. 79736), PDE4B2 Assay Kit (BPS, Cat. 60343) • PDE3A recombinant enzyme • PDE4B2 recombinant enzyme • FAM-Cyclic-3′, 5′-AMP • PDE assay buffer • Binding Agent • Binding Agent Diluent (cAMP)
(§3) • 1) Prepare FAM cAMP working solution: 20 μL of FAM-Cyclic-3′,5′-AMP stock was added to 1980 μL of PDE assay buffer. The mixture was added to all wells at 25 μL/well. • 2) Prepare compound solution: the test compounds were dissolved in DMSO to give a 10 mM stock solution. The compound stock solution was diluted with DMSO to a 100× Top Dose diluent. 5 μL of 100× Top Dose diluent was added to 45 μL of PDE assay buffer to prepare a compound Top Dose working solution. Then, the compound working solution was subjected to double dilution with PDE assay buffer containing 10% DMSO to prepare compound working solutions of various concentrations. The compound working solutions were added to compound wells at 5 μL/well. 5 μL of PDE assay buffer containing 10% DMSO was added to each control well. • 3) Prepare PDE enzyme solution: PDE3A and PDE4B2 enzyme stock solutions were diluted to 150 pg/μL and 50 pg/μL, respectively, with PDE assay buffer, and added to all compound wells and Vehicle control wells at 20 μL/well. 20 μL of PDE assay buffer was added to Blank control wells. • 4) React at room temperature for 1 h. • 5) Prepare Binding Agent: 80 μL of binding agent was added to 7920 μL of binding agent diluent, and the mixture was mixed well and added to all wells at 100 μL/well. • 6) React at room temperature for 1 h. • 7) Read FP on Envision. • 8) Calculation formula for original data:
(§4) % inhibition rate=(FPV−FPS)/(FPV−FPB)×100% • FPS=sample FP • FPV=Vehicle control FP • FPB=Blank control FP.
(§5) Nonlinear regression analysis of log[dose]-inhibition rate was performed by graphpad and IC50 was calculated.

PDE3A recombinant enzyme = molecular target: T2, PDE3A recombinant enzyme (Homo sapiens, UniProt Q14432); assay: In vitro assay of inhibitory activity against PDE 3A enzyme (FP, FAM-cAMP); type: biochemical; conditions: in vitro screening assay
T2 construct: purchased BPS 79736
T2 sequence (Q14432 whole entry): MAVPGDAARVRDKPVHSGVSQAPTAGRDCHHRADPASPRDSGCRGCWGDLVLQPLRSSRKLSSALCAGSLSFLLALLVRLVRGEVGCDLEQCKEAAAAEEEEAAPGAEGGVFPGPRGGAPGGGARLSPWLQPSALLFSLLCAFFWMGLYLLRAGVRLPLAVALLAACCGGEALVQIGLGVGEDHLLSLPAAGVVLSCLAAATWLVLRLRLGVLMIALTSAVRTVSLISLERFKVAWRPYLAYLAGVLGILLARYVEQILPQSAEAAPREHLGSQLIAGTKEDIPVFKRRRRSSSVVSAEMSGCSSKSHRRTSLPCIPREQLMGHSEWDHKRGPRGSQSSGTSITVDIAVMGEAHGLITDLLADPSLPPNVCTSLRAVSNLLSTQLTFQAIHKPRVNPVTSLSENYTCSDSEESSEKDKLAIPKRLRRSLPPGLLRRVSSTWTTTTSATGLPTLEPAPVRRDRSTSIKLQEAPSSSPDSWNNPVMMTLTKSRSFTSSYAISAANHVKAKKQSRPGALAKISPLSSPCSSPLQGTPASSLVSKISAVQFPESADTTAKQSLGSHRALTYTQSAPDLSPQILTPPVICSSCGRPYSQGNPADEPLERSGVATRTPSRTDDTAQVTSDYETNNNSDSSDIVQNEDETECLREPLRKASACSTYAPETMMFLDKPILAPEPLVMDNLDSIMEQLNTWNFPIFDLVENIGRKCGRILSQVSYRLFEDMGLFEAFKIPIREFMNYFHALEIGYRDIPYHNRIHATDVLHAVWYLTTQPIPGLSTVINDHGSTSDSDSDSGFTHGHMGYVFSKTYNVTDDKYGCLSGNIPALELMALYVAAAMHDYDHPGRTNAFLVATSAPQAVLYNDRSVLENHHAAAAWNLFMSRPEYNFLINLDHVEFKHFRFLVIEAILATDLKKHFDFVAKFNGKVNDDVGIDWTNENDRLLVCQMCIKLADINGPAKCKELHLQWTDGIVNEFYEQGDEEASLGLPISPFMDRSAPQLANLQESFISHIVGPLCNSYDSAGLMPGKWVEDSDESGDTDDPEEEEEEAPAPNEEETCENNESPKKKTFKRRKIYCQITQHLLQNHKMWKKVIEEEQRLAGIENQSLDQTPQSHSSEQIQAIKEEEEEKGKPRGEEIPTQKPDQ
Method: as §1, §2, §3, §4, §5

Row | IC50 [3] [nM] | IC50 (PDE3A recombinant enzyme) [nM] | Structure (SMILES) | PDE4 inhibitory activity (PDE4) | plasma clearance [1] | solubility [2]
1 |  |  | COc1cc2c(cc1OC)-c1c/c(=N\c3c(C)cc(C)cc3C)n(CCNC(N)=O)c(=O)n1CC2 [RPL554] | unsatisfactory | high | poor
2 | 1.52 | 0.5 | CCOc1cc2c(cc1OC)-c1c/c(=N\c3c(C)cc(OC)cc3C)n(CCNC(=O)c3c(O)nnn3C)c(=O)n1CC2 [Compound 9, (E)-N-(2-(9-ethoxy-10-methoxy-2-((4-methoxy-2,6-dimethylphenyl)imino)-4-oxo-6,7-dihydro-2H-pyrimido[6,1-a]isoquinolin-3(4H)-yl)ethyl)-4-hydroxy-1-methyl-1H-1,2,3-triazole-5-carboxamide] |  |  | 
3 | 1.4 | 0.59 | CCOc1cc2c(cc1OC)-c1c/c(=N\c3c(C)cc(C4CC4)cc3C)n(CCNC(=O)c3c(O)nnn3C)c(=O)n1CC2 [Compound 8, (E)-N-(2-(2-((4-cyclopropyl-2,6-dimethylphenyl)imino)-9-ethoxy-10-methoxy-4-oxo-6,7-dihydro-2H-pyrimido[6,1-a]isoquinolin-3(4H)-yl)ethyl)-4-hydroxy-1-methyl-1H-1,2,3-triazole-5-carboxamide] |  |  | 
4 | 8.43 | 0.53 | COc1cc2c(cc1OC)-c1c/c(=N\c3c(C)cc(C4CC4)cc3C)n(CCNC(=O)c3c(O)nnn3C)c(=O)n1CC2 [Compound 6, (E)-N-(2-(2-((4-cyclopropyl-2,6-dimethylphenyl)imino)-9,10-dimethoxy-4-oxo-6,7-dihydro-2H-pyrimido[6,1-a]isoquinolin-3(4H)-yl)ethyl)-4-hydroxy-1-methyl-1H-1,2,3-triazole-5-carboxamide] |  |  | 
